Laboratory results published in patent publication US12257247B2 (Monte Rosa Therapeutics AG, priority 2023, dated 2025).
Like-named read-outs stand apart in the source and are kept apart here.

Biological target: T1, VAV1 (Homo sapiens, UniProt P15498+Q96SW2)
T1 construct: A heterozygous VAV1 C-terminal HiBiT knock-in pool was generated at Monte Rosa Therapeutics from a clonal Jurkat cell; endogenous in cells; host or cells: Jurkat clone stably expressing LgBiT, homozygous GSPT1-G575N; heterozygous VAV1-HiBiT knock-in pool
Test: VAV1 degradation activity, VAV1-HiBiT knock-in Jurkat luminescence assay (Example A, Table 1)
Type: cell-based
Conditions: VAV1-HiBiT knock-in Jurkat cells, luminescence read at 6 and 24 hours; for Dmax: Jurkat
Outline: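 Jurkat cells carrying VAV1-HiBiT knock-in, plated in RPMI/10% FBS with Endurazine live-cell substrate and pre-incubated ~16 h at 37° C. Compound dosed from 10 μM stock; luminescence read 6 and 24 h later. Response normalised to plate negative/positive controls, EC50 from 3-parameter logistic fit (hillslope 1).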

[1] = read-out: VAV1 DC50 (nM), class

| SMILES | Dmax (read-out: VAV1 Dmax %) [%] | Dmax (read-out: VAV1 Dmax %, class) [%] | DC50 (read-out: VAV1 DC50) [nM] | DC50 [1] [nM] |
| --- | --- | --- | --- | --- |
| O=C1CCC(c2cccc(-c3ccc(CCCn4ccccc4=O)cc3)c2Cl)C(=O)N1 (centres unmarked) [Compound 178, 3-(2-chloro-4′-(3-(2-oxopyridin-1(2H)-yl)propyl)-[1,1′-biphenyl]-3-yl)piperidine-2,6-dione] | 81.1 | 60 to 90 | 239 | 100 to 1000 |
| Cn1ccc(COc2ccc(-c3c(C#N)ccc(C4CCC(=O)NC4=O)c3Cl)cc2)n1 (centres unmarked) [Compound 179] | 32.8 | < 60 | ≥ 10000 | > 1000 |
| Cn1ccc(CNc2ccc(-c3cccc(C4CCC(=O)NC4=O)c3Cl)cc2)n1 (centres unmarked) [Compound 180, 3-(2-chloro-4′-(((1-methyl-1H-pyrazol-3-yl)methyl)amino)-[1,1′-biphenyl]-3-yl)piperidine-2,6-dione] | 88.8 | 60 to 90 | 11.5 | ≤ 100 |
| O=C1CCC(c2cccc(-c3ccc(C(=O)N4CCCC4)cc3)c2Cl)C(=O)N1 (centres unmarked) [Compound 181, 3-(2-chloro-4′-(pyrrolidine-1-carbonyl)-[1,1′-biphenyl]-3-yl)piperidine-2,6-dione] | 85.9 | 60 to 90 | 33.9 | ≤ 100 |
| O=C1CCC(c2cccc(-c3ccc(CCn4ccccc4=O)cc3)c2Cl)C(=O)N1 (centres unmarked) [Compound 182, 3-(2-chloro-4′-(2-(2-oxopyridin-1(2H)-yl)ethyl)-[1,1′-biphenyl]-3-yl)piperidine-2,6-dione] | 89.3 | 60 to 90 | 11.7 | ≤ 100 |
| Cn1cnc(COc2ccc(-c3cccc(C4CCC(=O)NC4=O)c3Cl)cc2)c1 (centres unmarked) [Compound 183, 3-(2-chloro-4′-((1-methyl-1H-imidazol-4-yl)methoxy)-[1,1′-biphenyl]-3-yl)piperidine-2,6-dione] | 95.7 | > 90 | 5.55 | ≤ 100 |
| Cc1cccc(=O)n1Cc1ccc(-c2cccc(C3CCC(=O)NC3=O)c2Cl)cc1 (centres unmarked) [Compound 184, 3-(2-chloro-4′-((6-methyl-2-oxopyridin-1(2H)-yl)methyl)-[1,1′-biphenyl]-3-yl)piperidine-2,6-dione] | 92.1 | > 90 | 11.6 | ≤ 100 |
| O=C1CCC(c2cccc(-c3ccc(-n4ccccc4=O)cc3)c2Cl)C(=O)N1 (centres unmarked) [Compound 185, 3-(2-chloro-4′-(2-oxopyridin-1(2H)-yl)-[1,1′-biphenyl]-3-yl)piperidine-2,6-dione] | 97 | > 90 | 7 | ≤ 100 |
| Cn1cncc1COc1ccc(-c2cccc(C3CCC(=O)NC3=O)c2Cl)cc1 (centres unmarked) [Compound 186, 3-(2-chloro-4′-((1-methyl-1H-imidazol-5-yl)methoxy)-[1,1′-biphenyl]-3-yl)piperidine-2,6-dione] | 95.3 | > 90 | 13.6 | ≤ 100 |
| Cc1cccn(Cc2ccc(-c3cccc(C4CCC(=O)NC4=O)c3Cl)cc2)c1=O (centres unmarked) [Compound 187, 3-(2-chloro-4′-((3-methyl-2-oxopyridin-1(2H)-yl)methyl)-[1,1′-biphenyl]-3-yl)piperidine-2,6-dione] | 94.2 | > 90 | 9.75 | ≤ 100 |
| Cc1ccc(=O)n(Cc2ccc(-c3cccc(C4CCC(=O)NC4=O)c3Cl)cc2)c1 (centres unmarked) [Compound 188, 3-(2-chloro-4′-((5-methyl-2-oxopyridin-1(2H)-yl)methyl)-[1,1′-biphenyl]-3-yl)piperidine-2,6-dione] | 95 | > 90 | 7.16 | ≤ 100 |
| Cc1ccn(Cc2ccc(-c3cccc(C4CCC(=O)NC4=O)c3Cl)cc2)c(=O)c1 (centres unmarked) [Compound 189, 3-(2-chloro-4′-((4-methyl-2-oxopyridin-1(2H)-yl)methyl)-[1,1′-biphenyl]-3-yl)piperidine-2,6-dione] | 91.4 | > 90 | 33.7 | ≤ 100 |
| O=C1CCC(c2cccc(-c3cccc(COC4CCOC4)c3)c2Cl)C(=O)N1 (centres unmarked) [Compound 190, 3-(2-chloro-3′-(((tetrahydrofuran-3-yl)oxy)methyl)-[1,1′-biphenyl]-3-yl)piperidine-2,6-dione] | 21.5 | < 60 | 3330 | > 1000 |
| Cn1cc(CNc2ccc(-c3cccc(C4CCC(=O)NC4=O)c3Cl)cc2)cn1 (centres unmarked) [Compound 193, 3-(2-chloro-4′-(((1-methyl-1H-pyrazol-4-yl)methyl)amino)-[1,1′-biphenyl]-3-yl)piperidine-2,6-dione] | 91.7 | > 90 | 13.3 | ≤ 100 |
| Cn1ccc(CCc2ccc(-c3cccc(C4CCC(=O)NC4=O)c3Cl)cc2)n1 (centres unmarked) [Compound 194, 3-(2-chloro-4′-(2-(1-methyl-1H-pyrazol-3-yl)ethyl)-[1,1′-biphenyl]-3-yl)piperidine-2,6-dione] | 94.1 | > 90 | 18.4 | ≤ 100 |
| O=C1CCC(c2cccc(-c3ccc(N4CCC4)cc3)c2Cl)C(=O)N1 (centres unmarked) [Compound 195, 3-(4′-(azetidin-1-yl)-2-chloro-[1,1′-biphenyl]-3-yl)piperidine-2,6-dione] | 79.4 | 60 to 90 | 552 | 100 to 1000 |
| Cn1ccc(NCc2ccc(-c3cccc(C4CCC(=O)NC4=O)c3Cl)cc2)n1 (centres unmarked) [Compound 196, 3-(2-chloro-4′-(((1-methyl-1H-pyrazol-3-yl)amino)methyl)-[1,1′-biphenyl]-3-yl)piperidine-2,6-dione] | 95.6 | > 90 | 9.34 | ≤ 100 |
| CC(C)(c1ccc(-c2cccc(C3CCC(=O)NC3=O)c2Cl)cc1)N1CCCCC1=O (centres unmarked) [Compound 197, 3-(2-chloro-4′-(2-(2-oxopiperidin-1-yl)propan-2-yl)-[1,1′-biphenyl]-3-yl)piperidine-2,6-dione] | 88.8 | 60 to 90 | 33 | ≤ 100 |
| O=C1CCC(c2cccc(-c3ccc(C4COC4)cc3)c2Cl)C(=O)N1 (centres unmarked) [Compound 198, 3-(2-chloro-4′-(oxetan-3-yl)-[1,1′-biphenyl]-3-yl)piperidine-2,6-dione] | 54.6 | < 60 | 4840 | > 1000 |
| Cc1cc(-c2cccc(C3CCC(=O)NC3=O)c2Cl)ccc1-n1ccccc1=O (centres unmarked) [Compound 199, 3-(2-chloro-3′-methyl-4′-(2-oxopyridin-1(2H)-yl)-[1,1′-biphenyl]-3-yl)piperidine-2,6-dione] | 66.8 | 60 to 90 | 1280 | > 1000 |
| CC1CCCC(=O)N1c1ccc(-c2cccc(C3CCC(=O)NC3=O)c2Cl)cc1 (centres unmarked) [Compound 200, 3-(2-chloro-4′-(2-methyl-6-oxopiperidin-1-yl)-[1,1′-biphenyl]-3-yl)piperidine-2,6-dione] | 97 | > 90 | 5.14 | ≤ 100 |
| O=C1CC[C@H](c2cccc(-c3ccc(Cn4ccccc4=O)cc3)c2Cl)C(=O)N1 [Compound 201, (R)-3-(2-chloro-4′-((2-oxopyridin-1(2H)-yl)methyl)-[1,1′-biphenyl]-3-yl)piperidine-2,6-dione] | 88.7 | 60 to 90 | 203 | 100 to 1000 |
| O=C1CC[C@@H](c2cccc(-c3ccc(Cn4ccccc4=O)cc3)c2Cl)C(=O)N1 [Compound 202, (S)-3-(2-chloro-4′-((2-oxopyridin-1(2H)-yl)methyl)-[1,1′-biphenyl]-3-yl)piperidine-2,6-dione] | 94.6 | > 90 | 14.6 | ≤ 100 |
| O=C1CCC(c2cccc(-c3ccc(OCc4cc[nH]n4)cc3)c2Cl)C(=O)N1 (centres unmarked) [Compound 203, 3-(4′-((1H-pyrazol-3-yl)methoxy)-2-chloro-[1,1′-biphenyl]-3-yl)piperidine-2,6-dione] | 94.6 | > 90 | 29.3 | ≤ 100 |
| O=C1CCC(c2cccc(-c3ccc(N4CCCOC4=O)cc3)c2Cl)C(=O)N1 (centres unmarked) [Compound 204, 3-(2-chloro-4′-(2-oxo-1,3-oxazinan-3-yl)-[1,1′-biphenyl]-3-yl)piperidine-2,6-dione] | 95.8 | > 90 | 12.2 | ≤ 100 |
| O=C1CCC(c2cccc(-c3ccc(N4C(=O)CCCC4=O)cc3)c2Cl)C(=O)N1 (centres unmarked) [Compound 205, 1-(2′-chloro-3′-(2,6-dioxopiperidin-3-yl)-[1,1′-biphenyl]-4-yl)piperidine-2,6-dione] | 90.4 | > 90 | 16.4 | ≤ 100 |
| O=C1CCC(c2cccc(-c3ccc(CN4CCCC4=O)cc3)c2Cl)C(=O)N1 (centres unmarked) [Compound 206, 3-(2-chloro-4′-((2-oxopyrrolidin-1-yl)methyl)-[1,1′-biphenyl]-3-yl)piperidine-2,6-dione] | 87.5 | 60 to 90 | 42.7 | ≤ 100 |
| Cn1ccc(C(=O)Nc2ccc(-c3cccc(C4CCC(=O)NC4=O)c3Cl)cc2)n1 (centres unmarked) [Compound 207, N-[4-[2-chloro-3-(2,6-dioxo-3-piperidyl)phenyl]phenyl]-1-methyl-pyrazole-3-carboxamide] | 88.7 | 60 to 90 | 34.7 | ≤ 100 |
| O=C1CCC(c2cccc(-c3ccc(Cc4ncccn4)cc3)c2Cl)C(=O)N1 (centres unmarked) [Compound 208] | 97.2 | > 90 | 4.54 | ≤ 100 |
